Assay results as given in ChEMBL document CHEMBL4706499, “PTG-0861: A novel HDAC6-selective inhibitor as a therapeutic strategy in acute myeloid leukaemia” (Eur J Med Chem, 2020).

Assays:
MV4-11 = assay: Cytotoxicity against human MV4-11 cells measured after 72 hrs by spectrophotometer method; assay type: functional, cell-based; conditions: MV4-11, 72 h
[1] = Cytotoxicity against human MRC9 cells measured after 72 hrs by spectrophotometer method; assay type: cell-based; conditions: MRC9, 72 h
Histone deacetylase 3 = Histone deacetylase 3 (Homo sapiens, UniProt O15379); assay: Inhibition of recombinant full length human HDAC3 expressed in SF9 baculovirus using FAM- labelled acetylated peptide as substrate measured by Electrophoretic mobility shift assay
[2] = target: T1, Protein deacetylase HDAC6 (Homo sapiens, UniProt Q9UBN7); assay: Inhibition of recombinant full length human HDAC6 expressed in SF9 baculovirus using FAM- labelled acetylated peptide as substrate measured by Electrophoretic mobility shift assay
T1 sequence (Q9UBN7 whole entry): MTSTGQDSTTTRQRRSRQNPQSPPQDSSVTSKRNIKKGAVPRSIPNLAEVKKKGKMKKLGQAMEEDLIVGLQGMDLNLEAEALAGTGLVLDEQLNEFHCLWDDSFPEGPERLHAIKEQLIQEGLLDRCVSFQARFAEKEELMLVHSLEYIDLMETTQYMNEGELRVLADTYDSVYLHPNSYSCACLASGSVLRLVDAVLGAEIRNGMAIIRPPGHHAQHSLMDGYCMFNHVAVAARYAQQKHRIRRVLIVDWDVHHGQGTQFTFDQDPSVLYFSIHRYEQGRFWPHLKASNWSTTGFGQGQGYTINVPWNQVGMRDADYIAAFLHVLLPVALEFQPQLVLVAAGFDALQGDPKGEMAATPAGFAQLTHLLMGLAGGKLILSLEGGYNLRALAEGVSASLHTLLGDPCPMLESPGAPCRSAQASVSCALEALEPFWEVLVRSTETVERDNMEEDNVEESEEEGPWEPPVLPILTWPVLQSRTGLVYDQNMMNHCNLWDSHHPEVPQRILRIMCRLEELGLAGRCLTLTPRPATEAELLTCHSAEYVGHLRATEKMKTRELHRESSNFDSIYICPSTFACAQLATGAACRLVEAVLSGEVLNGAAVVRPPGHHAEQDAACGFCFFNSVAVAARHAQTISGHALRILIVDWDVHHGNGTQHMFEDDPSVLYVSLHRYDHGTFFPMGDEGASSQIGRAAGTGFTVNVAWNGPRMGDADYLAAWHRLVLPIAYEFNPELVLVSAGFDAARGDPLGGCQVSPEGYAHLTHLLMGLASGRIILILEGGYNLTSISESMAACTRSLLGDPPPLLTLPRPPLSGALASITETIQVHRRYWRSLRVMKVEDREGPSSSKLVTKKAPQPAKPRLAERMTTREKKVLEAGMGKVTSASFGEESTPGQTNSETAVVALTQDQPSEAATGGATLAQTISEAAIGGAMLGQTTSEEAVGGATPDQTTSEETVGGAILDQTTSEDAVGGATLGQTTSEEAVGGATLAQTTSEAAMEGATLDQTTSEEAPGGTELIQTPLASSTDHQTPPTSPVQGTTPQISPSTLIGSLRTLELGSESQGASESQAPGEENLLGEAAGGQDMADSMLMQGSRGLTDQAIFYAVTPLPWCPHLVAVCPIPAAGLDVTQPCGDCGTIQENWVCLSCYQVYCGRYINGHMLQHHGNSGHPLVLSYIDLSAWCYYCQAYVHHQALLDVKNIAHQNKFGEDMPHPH

Histone deacetylase 8 = target: T2, Histone deacetylase 8 (Homo sapiens, UniProt Q9BY41); assay: Inhibition of recombinant full length human HDAC8 expressed in SF9 baculovirus using FAM- labelled acetylated peptide as substrate measured by Electrophoretic mobility shift assay
T2 sequence (Q9BY41 whole entry): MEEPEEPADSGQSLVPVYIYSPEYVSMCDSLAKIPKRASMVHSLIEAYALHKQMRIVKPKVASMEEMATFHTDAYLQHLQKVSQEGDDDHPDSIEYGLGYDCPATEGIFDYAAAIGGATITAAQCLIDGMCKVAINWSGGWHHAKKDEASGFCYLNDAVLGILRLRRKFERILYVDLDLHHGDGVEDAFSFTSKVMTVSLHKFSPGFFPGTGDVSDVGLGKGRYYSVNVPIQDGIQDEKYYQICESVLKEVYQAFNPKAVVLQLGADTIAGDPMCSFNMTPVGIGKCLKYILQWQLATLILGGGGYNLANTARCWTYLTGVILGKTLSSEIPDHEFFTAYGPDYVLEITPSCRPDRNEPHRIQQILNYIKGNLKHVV

Histone deacetylase 11 = target: T3, Histone deacetylase 11 (Homo sapiens, UniProt Q96DB2); assay: Inhibition of recombinant full length human HDAC11 expressed in SF9 baculovirus using FAM- labelled acetylated peptide as substrate measured by Electrophoretic mobility shift assay
T3 sequence (Q96DB2 whole entry): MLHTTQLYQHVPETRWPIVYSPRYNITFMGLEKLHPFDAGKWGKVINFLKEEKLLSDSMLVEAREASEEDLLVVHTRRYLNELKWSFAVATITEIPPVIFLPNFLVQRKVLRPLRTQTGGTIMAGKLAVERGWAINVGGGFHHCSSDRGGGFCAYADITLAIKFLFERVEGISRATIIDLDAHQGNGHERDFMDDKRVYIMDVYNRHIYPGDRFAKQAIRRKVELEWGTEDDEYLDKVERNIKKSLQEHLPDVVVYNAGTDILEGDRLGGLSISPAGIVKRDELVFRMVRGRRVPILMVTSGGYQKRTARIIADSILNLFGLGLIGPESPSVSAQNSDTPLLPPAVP

[3] = Selectivity ratio of IC50 for full length recombinant human HDAC3 to IC50 for full length recombinant human HDAC6

Histone deacetylase 3, sequence (O15379 whole entry): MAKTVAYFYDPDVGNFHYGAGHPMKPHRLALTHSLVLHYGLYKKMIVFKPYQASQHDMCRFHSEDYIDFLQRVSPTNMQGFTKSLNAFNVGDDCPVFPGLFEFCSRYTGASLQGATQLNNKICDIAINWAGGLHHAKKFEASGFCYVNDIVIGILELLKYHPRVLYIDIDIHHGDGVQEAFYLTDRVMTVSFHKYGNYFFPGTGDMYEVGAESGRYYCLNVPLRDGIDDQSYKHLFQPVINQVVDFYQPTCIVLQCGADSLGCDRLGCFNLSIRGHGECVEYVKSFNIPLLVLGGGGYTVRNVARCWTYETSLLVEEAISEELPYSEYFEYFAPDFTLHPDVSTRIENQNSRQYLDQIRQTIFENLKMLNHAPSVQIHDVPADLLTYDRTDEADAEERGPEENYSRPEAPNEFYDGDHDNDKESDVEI

| SMILES | IC50 (Histone deacetylase 3) | IC50 [2] | IC50 (Histone deacetylase 8) | IC50 (Histone deacetylase 11) | Ratio IC50 [3] | IC50 (MV4-11) | IC50 [1] |
| --- | --- | --- | --- | --- | --- | --- | --- |
| O=C(/C=C/c1ccc(CN(C(=O)c2c(F)c(F)c(F)c(F)c2F)C2CC2)cc1)NO | 70 nM | 12 nM | 420 nM | > 1000 nM | 5.83 | 760 nM | > 25000 nM |
| O=C(/C=C/c1ccc(CNC(=O)c2c(F)c(F)c(F)c(F)c2F)cc1)NO | 13 nM | 14 nM | 283 nM | > 1000 nM | – | 320 nM | > 25000 nM |
| O=C(NO)c1ccc(NC(=O)c2ccc(F)cc2)cc1 | 45.4 nM | 6.77 nM | 567 nM | > 1000 nM | 6.7 | 3640 nM | > 25000 nM |
| O=C(NO)c1ccc(NC(=O)c2ccc(N3CCOCC3)cc2)cc1 | > 1000 nM | 96.6 nM | 921 nM | > 1000 nM | > 9.53 | 17100 nM | > 50000 nM |
| O=C(NO)c1ccc(NC(=O)c2ccc(C3CCCCC3)cc2)cc1 | 159 nM | 26.6 nM | 208 nM | 411 nM | 5.98 | 530 nM | > 25000 nM |
| CN(Cc1ccc(C(=O)NO)cc1)C(=O)c1c(F)c(F)c(F)c(F)c1F | 740 nM | 17.3 nM | > 1000 nM | > 1000 nM | 42.8 | 3730 nM | > 25000 nM |
| O=C(NO)c1ccc(NC(=O)c2c(F)c(F)c(F)c(F)c2F)cc1 | 3.13 nM | 1.46 nM | 14 nM | 700 nM | 2.14 | 1510 nM | > 25000 nM |
| O=C(NO)c1ccc(CN(C(=O)c2c(F)c(F)c(F)c(F)c2F)C2CC2)cc1 | > 1000 nM | 18.4 nM | 971 nM | > 1000 nM | > 52.8 | 7370 nM | > 50000 nM |
| CC(C)N(Cc1ccc(C(=O)NO)cc1)C(=O)c1c(F)c(F)c(F)c(F)c1F | > 1000 nM | 14 nM | 876 nM | > 1000 nM | 62.6 | 16400 nM | > 15000 nM |
| O=C(NO)c1ccc(NC(=O)c2ccc(C3CC3)cc2)cc1 | 11.9 nM | 2.81 nM | 20.4 nM | 704 nM | 4.23 | 1080 nM | > 25000 nM |
| CC(C)(C)c1cccc(C(=O)Nc2ccc(C(=O)NO)cc2)c1 | – | – | – | – | – | 3880 nM | > 25000 nM |

Second part, led by results:

| IC50 (Histone deacetylase 3) | IC50 [2] | IC50 (Histone deacetylase 8) | IC50 (Histone deacetylase 11) | Ratio IC50 [3] | SMILES | IC50 (MV4-11) | IC50 [1] |
| --- | --- | --- | --- | --- | --- | --- | --- |
| 15.2 nM | 32.4 nM | 162 nM | > 1000 nM | – | CC(C)(C)c1ccc(C(=O)NCc2ccc(C(=O)NO)cc2)cc1 | 570 nM | > 25000 nM |
| 10.9 nM | 10.4 nM | 43.9 nM | 447 nM | 1.05 | CC(C)(C)c1ccc(NC(=O)c2ccc(C(=O)NO)cc2)cc1 | 1440 nM | > 25000 nM |
| > 1000 nM | > 1000 nM | 281 nM | > 1000 nM | – | CCN(C(=O)c1ccc(C(C)(C)C)cc1)c1ccc(C(=O)NO)cc1 | 8230 nM | > 25000 nM |
| 297 nM | 41.9 nM | 622 nM | > 1000 nM | 7.09 | CC(C)(C)c1ccc(S(=O)(=O)NCc2ccc(C(=O)NO)cc2)cc1 | 5030 nM | > 25000 nM |
| 323 nM | 20.9 nM | 269 nM | > 1000 nM | 12.9 | CC(C)(C)c1ccc(C(=O)N(Cc2ccc(C(=O)NO)cc2)C2CC2)cc1 | 8570 nM | > 25000 nM |
| 243 nM | 22.6 nM | 220 nM | > 1000 nM | 9.73 | O=C(NO)c1ccc(NC(=O)c2ccc(C(F)(F)F)cc2)cc1 | 880 nM | > 5000 nM |
| 10.9 nM | 1.6 nM | 21.6 nM | > 1000 nM | 6.81 | Cc1ccc(C(=O)Nc2ccc(C(=O)NO)cc2)cc1 | 2400 nM | > 25000 nM |
| 34.4 nM | 17.5 nM | 9.4 nM | 223 nM | – | CC(C)(C)c1ccc(NS(=O)(=O)c2ccc(C(=O)NO)cc2)cc1 | 7160 nM | > 50000 nM |
| 2.25 nM | 2.01 nM | 13.3 nM | 44.2 nM | 1.12 | CC(C)(C)c1ccc(S(=O)(=O)Nc2ccc(C(=O)NO)cc2)cc1 | 1180 nM | > 25000 nM |
| 3.74 nM | 13 nM | 74.3 nM | > 1000 nM | – | CC(C)(C)c1ccc(CC(=O)Nc2ccc(C(=O)NO)cc2)cc1 | 340 nM | > 15000 nM |
